Measurements: ChEMBL document CHEMBL1147179, “Synthesis and antimicrobial activity of some novel phenyl and benzimidazole substituted benzyl ethers” (2007)
≈ marks a conversion by molar mass, not a printed value. Calls of active or inactive are those of the source. The rule behind the calls is not given here.

Assays:
[1] = test system: Escherichia coli; test: Antibacterial activity against Escherichia coli ATCC 25922 at 100 ug/ml by diffusion method; format: functional, organism-based
[2] = test system: Candida albicans; test: Antifungal activity against Candida albicans ATCC 10231 by macro-broth dilution assay; format: functional
[3] = test system: Staphylococcus aureus; test: Antibacterial activity against methicillin-resistant Staphylococcus aureus ATCC 43300 by macro-broth dilution assay; format: functional
[4] = test system: Pichia kudriavzevii; test: Antifungal activity against Candida krusei ATCC 6258 by macro-broth dilution assay; format: functional
[5] = test system: Staphylococcus aureus; test: Antibacterial activity against Staphylococcus aureus ATCC 25923 by macro-broth dilution assay; format: functional

| SMILES | Activity [1] | MIC [2] | MIC [3] | MIC [4] | MIC [5] |
| --- | --- | --- | --- | --- | --- |
| FC(F)(F)c1ccc(COC(Cn2cnc3ccccc32)c2ccccc2)cc1 (stereo unspecified) | inactive | 25 µg/mL (≈ 63.1 µM) | 12.5 µg/mL (≈ 31.5 µM) | 12.5 µg/mL (≈ 31.5 µM) | 6.25 µg/mL (≈ 15.8 µM) |
| CC1(C)S[C@@H]2[C@H](NC(=O)[C@H](N)c3ccccc3)C(=O)N2[C@H]1C(=O)O [AMPICILLIN] | inactive | – | 25 µg/mL (≈ 71.5 µM) | – | 0.78 µg/mL (≈ 2.23 µM) |
| Clc1ccc(COC(Cn2cnc3ccccc32)c2ccccc2)cc1 (stereo unspecified) | inactive | 25 µg/mL (≈ 68.9 µM) | 12.5 µg/mL (≈ 34.4 µM) | 25 µg/mL (≈ 68.9 µM) | 3.12 µg/mL (≈ 8.6 µM) |
| Clc1ccc(Cl)c(COC(Cn2cnc3ccccc32)c2ccccc2)c1 (stereo unspecified) | inactive | – | – | – | – |
| Clc1ccc(COC(Cn2ccnc2)c2ccc(Cl)cc2Cl)c(Cl)c1 (stereo unspecified) [MICONAZOLE] | inactive | 0.19 µg/mL (≈ 0.457 µM) | – | 0.78 µg/mL (≈ 1.87 µM) | – |
| Clc1ccc(COC(Cn2cnc3ccccc32)c2ccccc2)c(Cl)c1 (stereo unspecified) | inactive | 25 µg/mL (≈ 62.9 µM) | 12.5 µg/mL (≈ 31.5 µM) | 25 µg/mL (≈ 62.9 µM) | 3.12 µg/mL (≈ 7.85 µM) |
| Clc1ccc(COC(Cn2cnc3ccccc32)c2ccccc2)cc1Cl (stereo unspecified) | inactive | 12.5 µg/mL (≈ 31.5 µM) | 25 µg/mL (≈ 62.9 µM) | 25 µg/mL (≈ 62.9 µM) | 3.12 µg/mL (≈ 7.85 µM) |
| OC(Cn1cncn1)(Cn1cncn1)c1ccc(F)cc1F [FLUCONAZOLE] | inactive | 0.78 µg/mL (≈ 2.55 µM) | – | 25 µg/mL (≈ 81.6 µM) | – |
| c1ccc(COC(Cn2cnc3ccccc32)c2ccccc2)cc1 (stereo unspecified) | inactive | 25 µg/mL (≈ 76.1 µM) | 25 µg/mL (≈ 76.1 µM) | 25 µg/mL (≈ 76.1 µM) | 25 µg/mL (≈ 76.1 µM) |
| Brc1ccc(COC(Cn2cnc3ccccc32)c2ccccc2)cc1 (stereo unspecified) | inactive | 25 µg/mL (≈ 61.4 µM) | 12.5 µg/mL (≈ 30.7 µM) | 25 µg/mL (≈ 61.4 µM) | 3.12 µg/mL (≈ 7.66 µM) |
| Clc1cccc(Cl)c1COC(Cn1cnc2ccccc21)c1ccccc1 (stereo unspecified) | inactive | 12.5 µg/mL (≈ 31.5 µM) | 6.25 µg/mL (≈ 15.7 µM) | 12.5 µg/mL (≈ 31.5 µM) | 3.12 µg/mL (≈ 7.85 µM) |
| Fc1ccc(COC(Cn2cnc3ccccc32)c2ccccc2)cc1 (stereo unspecified) | inactive | 25 µg/mL (≈ 72.2 µM) | 25 µg/mL (≈ 72.2 µM) | 25 µg/mL (≈ 72.2 µM) | 12.5 µg/mL (≈ 36.1 µM) |
| O=C(O)c1cn(C2CC2)c2cc(N3CCNCC3)c(F)cc2c1=O | inactive | – | – | – | – |
